Read-outs that look alike come from different tables or passages of the source.
Legend:
[1] = system: Male ddY mice; assay: Forced swimming test (depression model); type: in vivo
Procedure: Male ddY mice were used for the experiments. Mice raised for three or more days after purchase were made to swim for 300 seconds in a beaker (15 cm in diameter, 20 cm in height). Immobility time was measured, and the mice were divided into groups such that the average immobility time was approximately the same for each group. The day after swimming an antisense (OCT3 antisense) constructed from an OCT3 gene sequence was continuously infused into the cerebral ventricle, using an osmotic pump according to the reported literature (J. Chem. Neuroanat. 2000. 20: 375-87). Further, a group infused with Ringer's solution, which is an antisense solvent (the solvent group) and a group infused with a cDNA sequence with the same bases as the antisense but in a random sequence without homology to known genes (the scrambled OCT3 antisense group) were also prepared. One week after infusion the mice were returned to the beakers and made to swim for 300 seconds, and immobility time was measured. Imipramine anti-depressant was intraperitoneally administered 30 minutes before the beginning of the test.

[2] = target: T1, OCT3/uptake2 (Homo sapiens, UniProt O75751); details: cited from earlier work
T1 sequence (O75751 1-556): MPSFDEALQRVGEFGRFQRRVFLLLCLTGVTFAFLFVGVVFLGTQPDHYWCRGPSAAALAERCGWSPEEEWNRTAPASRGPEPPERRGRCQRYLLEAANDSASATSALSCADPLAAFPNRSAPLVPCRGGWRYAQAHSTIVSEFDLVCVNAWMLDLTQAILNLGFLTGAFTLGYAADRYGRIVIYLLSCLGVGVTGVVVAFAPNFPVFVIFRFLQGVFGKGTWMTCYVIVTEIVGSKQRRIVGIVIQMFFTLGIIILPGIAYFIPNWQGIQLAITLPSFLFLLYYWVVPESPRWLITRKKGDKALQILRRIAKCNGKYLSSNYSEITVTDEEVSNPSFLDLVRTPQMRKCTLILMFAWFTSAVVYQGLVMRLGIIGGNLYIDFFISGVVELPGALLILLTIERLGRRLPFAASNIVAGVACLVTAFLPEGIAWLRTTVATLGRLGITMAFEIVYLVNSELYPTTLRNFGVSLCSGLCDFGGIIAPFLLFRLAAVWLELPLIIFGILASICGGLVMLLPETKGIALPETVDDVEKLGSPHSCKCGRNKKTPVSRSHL

[3] = system: other OCT subtypes; details: cited from earlier work
[4] = system: Male ddY mice; details: anti-depressant administration: chlordiazepoxide 100 mg/kg, imipramine 16 mg/kg; Behav Brain Res. 73, 43-46, 1996; cited from earlier work
[5] = target: T2, kidney derived Caki-1 cells, which contain OCT3 (Homo sapiens, UniProt O75751); details: cited from earlier work
T2 construct: kidney derived Caki-1 cells, which contain OCT3; endogenous in cells; host or cells: Caki-1
T2 sequence (O75751 1-556): T1 sequence (O75751 1-556)

[6] = intravenous administration; cited from earlier work
[7] = system: cultured porcine tubular cells; details: cited from earlier work

COc1cc(C(O)CN)ccc1O (stereo not shown) [normetanephrine]
immobility time (average value) ([1]; normetanephrine 2.5 μg/0.25 μl/hr continuous infusion to cerebral ventricle, one week, FIG. 2): 108 ± 29 s

CCN1C(=Cc2cc(C)nc(-c3ccccc3)[n+]2C)C=Cc2ccccc21.[Cl-] [cyanine 863]
inhibition of OCT3/uptake2 [2]: potent OCT3 inhibitors | inhibitory activity towards other OCT subtypes [3]: potent inhibitory activity

CN(C)CCCN1c2ccccc2CCc2ccccc21 [imipramine]
immobility time (average value) ([1]; imipramine 4 mg/kg intraperitoneally 30 minutes before test, 300 seconds of swimming, FIG. 1B): 245 ± 15 s | condition of immobility [4]: shortened

C[C@]12C[C@H](O)[C@H]3[C@@H](CCC4=CC(=O)CC[C@@]43C)[C@@H]1CC[C@@H]2C(=O)CO [Corticosterone, corticosterone]
uptake of MPP+ [5]: suppresses

CC(C)N1C=CC(=Cc2ccc3ccccc3[n+]2C(C)C)c2ccccc21 [disprocynium24, 1,1′-diisopropyl-2,4′-cyanine]
inhibition of OCT3/uptake2 [2]: potent inhibitor | inhibition of OCT3/uptake2 ([2]; listed as disprocynium 24): potent OCT3 inhibitors | excretion of monoamine into urine [6]: strongly suppresses | inhibitory activity towards other OCT subtypes [3]: potent inhibitory activity

CC(=O)[C@H]1CC[C@H]2[C@@H]3CCC4=CC(=O)CC[C@]4(C)[C@H]3CC[C@]12C [progesterone]
noradrenaline uptake [7]: significantly reduce

CCN1/C(=C/c2ccc3ccccc3[n+]2CC)C=Cc2ccccc21.[I-] [decynium 22]
inhibition of OCT3/uptake2 [2]: potent OCT3 inhibitors | inhibitory activity towards other OCT subtypes [3]: potent inhibitory activity

Reference: US20070136828A1, “Methods of using molecules related to organic cation transporter 3 (oct3) for treating depression, anxiety neuroses, drug dependencies, and other similar mental disorders” (Biostation Inc., priority 2004, published 2007)
